The source of these data is patent US7135479B2, “Antidepressant azaheterocyclylmethyl derivatives of heterocycle-fused benzodioxans” (Wyeth, priority 2002, dated 2006).

Counter-ions that a name gives are not always drawn. Like-named read-outs stand apart in the source and are kept apart here. Some results are limits rather than exact numbers.

The target of one data set is T1, serotonin transporter (Rattus norvegicus, UniProt P31652).
T1 construct: displace ^3H-paroxetine from male rat frontal cortical membranes; from tissue; host or cells: male rat frontal cortex membranes
T1 sequence (P31652 whole entry): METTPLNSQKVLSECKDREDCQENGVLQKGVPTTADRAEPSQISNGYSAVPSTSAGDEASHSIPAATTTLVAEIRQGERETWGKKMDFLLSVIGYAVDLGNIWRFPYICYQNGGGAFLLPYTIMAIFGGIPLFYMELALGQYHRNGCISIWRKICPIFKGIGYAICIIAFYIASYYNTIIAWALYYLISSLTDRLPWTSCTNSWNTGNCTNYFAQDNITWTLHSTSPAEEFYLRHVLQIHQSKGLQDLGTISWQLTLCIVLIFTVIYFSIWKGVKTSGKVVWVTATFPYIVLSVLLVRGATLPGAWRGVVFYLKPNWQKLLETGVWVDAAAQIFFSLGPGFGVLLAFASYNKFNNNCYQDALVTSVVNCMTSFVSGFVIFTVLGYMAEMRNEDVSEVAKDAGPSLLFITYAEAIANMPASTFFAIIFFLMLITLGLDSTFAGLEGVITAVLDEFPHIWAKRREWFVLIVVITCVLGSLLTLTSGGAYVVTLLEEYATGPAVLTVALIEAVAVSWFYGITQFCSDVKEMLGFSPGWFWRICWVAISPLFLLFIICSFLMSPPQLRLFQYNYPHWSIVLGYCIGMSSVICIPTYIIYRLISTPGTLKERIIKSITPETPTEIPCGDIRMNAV
Briefly: 3H-paroxetine displacement from male rat frontal cortical membranes (affinity for the serotonin transporter). The data set is classed as binding. To be noted: read-out: 5-HT Transporter Affinity KI.

A further data set addresses T2, human 5-HT1A receptors (Homo sapiens, UniProt P08908).
T2 construct: expressed in transfected cells; host or cells: CHO cells
T2 sequence (P08908 1-422): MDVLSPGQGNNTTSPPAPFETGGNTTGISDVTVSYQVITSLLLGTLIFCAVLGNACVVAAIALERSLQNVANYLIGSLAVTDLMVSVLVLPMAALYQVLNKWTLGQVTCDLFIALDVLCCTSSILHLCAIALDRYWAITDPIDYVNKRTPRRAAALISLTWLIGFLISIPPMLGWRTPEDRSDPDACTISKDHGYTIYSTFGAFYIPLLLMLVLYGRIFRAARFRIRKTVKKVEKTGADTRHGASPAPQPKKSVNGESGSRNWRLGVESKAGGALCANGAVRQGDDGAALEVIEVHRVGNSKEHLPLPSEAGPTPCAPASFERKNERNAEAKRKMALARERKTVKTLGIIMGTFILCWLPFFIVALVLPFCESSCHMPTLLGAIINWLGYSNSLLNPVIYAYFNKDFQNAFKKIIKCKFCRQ
Briefly: [3H] 8-OHDPAT displacement from 5-HT1A receptor, CHO cells stably transfected with human 5-HT1A receptors. The data set is classed as binding. To be noted: read-out: 5-HT1A Function KI. The text has this: High affinity for the serotonin 5-HT1A receptor was established by testing the claimed compound's ability to displace [^3H] 8-OHDPAT (dipropylaminotetralin) from the 5-HT1A serotonin receptor following a modification of the procedure of Hall et al., J. Neurochem. 44, 1685 (1985) which utilizes CHO cells stably transfected with human 5-HT1A receptors.

Data set [1] addresses T3, cloned human 5-HT1A receptors (Homo sapiens, UniProt P08908).
T3 construct: expressed in transfected cells
T3 sequence (P08908 1-422): T2 sequence (P08908 1-422)
Briefly: 35S-GTPγS binding assay, antagonist activity at 5-HT1A receptors. The data set is classed as biochemical. Conditions: for IC50: potency in reversing the effects of the standard agonist 8-OHDPAT, read-out: 5-HT1A Receptor Affinity IC50 (nM) (Imax): IC50; for Emax: read-out: 5-HT1A Receptor Affinity IC50 (nM) (Imax): Imax. The protocol:
Antagonist activity at 5-HT1A receptors was established by using a ^35S-GTPγS binding assay similar to that used by Lazareno and Birdsall (Br. J. Pharmacol. 109: 1120, 1993), in which the test compound's ability to affect the binding of ^35S-GTPγS to membranes containing cloned human 5-HT1A receptors was determined. Agonists produce an increase in binding whereas antagonists produce no increase but rather reverse the effects of the standard agonist 8-OHDPAT. The test compound's maximum inhibitory effect is represented as the Imax, while its potency is defined by the IC50.
For orientation: GTPγS is a poorly hydrolysed GTP analogue; its binding reports G protein activation.

The mark [2] stands for this setting: value in brackets, maximum inhibitory effect.

Consider `Cc1ccc2c3c(ccc2n1)OCC(CN1CC(Cn2ccc4ccc(F)cc42)C1)O3` (stereo not shown) (as salt: salt) [Example 9, 2-[3-(6-Fluoro-indol-1-ylmethyl)-azetidin-1-ylmethyl]-8-methyl-2,3-dihydro-[1,4]dioxino[2,3-f]quinoline], for which the melting point was 138 °C (dec.).

Regarding `Cc1ccc2c3c(ccc2n1)OC[C@H](CN1CC(CCn2ccc4ccc(C#N)cc42)C1)O3` [Example 11, 1-{2-[1-(8-Methyl-2,3-dihydro-[1,4]-dioxino[2,3-f]quinolin-2-ylmethyl)-azetinin-3-yl]-ethyl}-1H-indole-6-carbonitrile], the Ki on serotonin transporter is 2.86 nM; on human 5-HT1A receptors, 1.52 nM. Besides, in data set [1], the 50% inhibitory concentration (IC50) was found to be 251 nM. Moreover, the Emax in data set [1] (setting [2]) came out at 85%.

As for `Cc1ccc2c3c(ccc2n1)OCC(CN1CC(Cc2c[nH]c4ccc(F)cc24)C1)O3` (stereo not shown) [Example 1, 2-[3-(5-Fluoro-1H-indol-3-ylmethyl)-azetidin-1-ylmethyl]-8-methyl-2,3-dihydro-[1,4]dioxino[2,3-f]quinoline], the results for the inhibition constant (Ki) on serotonin transporter and at human 5-HT1A receptors were 1.29 nM and 2.5 nM, respectively. Besides, in data set [1], the IC50 is 59.5 nM. For the same molecule, the Emax in data set [1] (setting [2]) came to 73.7%.

`Cc1ccc2[nH]cc(CC3CN(C[C@H]4COc5ccc6nc(C)ccc6c5O4)C3)c2c1` [Example 12, 8-Methyl-2-[3-(5-methyl-1H-indol-3-ylmethyl)-azetidin-1-ylmethyl]-2,3-dihydro-[1,4]dioxino[2,3-f]quinoline]: the inhibition constant Ki at serotonin transporter came to 1.04 nM. In addition, the 50% inhibitory concentration (IC50) in data set [1] is 38.6 nM. Further, the Emax in data set [1] (setting [2]) came to 89.5%.

With `Cc1ccc2c3c(ccc2n1)OC[C@H](CN1CC(CCn2ccc4ccc(C#N)cc42)C1)O3` (as salt: hydrochloride) [Example 11, 1-{2-[1-(8-Methyl-2,3-dihydro-[1,4]-dioxino[2,3-f]quinolin-2-ylmethyl)-azetinin-3-yl]-ethyl}-1H-indole-6-carbonitrile], the melting point is 144 °C (dec.).

For the molecule `Cc1ccc2c3c(ccc2n1)OCC(CN1CCCC(Cc2c[nH]c4cc(F)ccc24)C1)O3` (stereo not shown) (as salt: salt) [Example 3, 2-[3-(6-Fluoro-1H-indol-3-ylmethyl)-piperidin-1-ylmethyl]-8-methyl-2,3-dihydro-[1,4]dioxino[2,3-f]quinoline], the melting point was 50 °C (dec.).

In the case of `Cc1ccc2c3c(ccc2n1)OCC(CN1CC(Cc2c[nH]c4ccc(F)cc24)C1)O3` (stereo not shown) (as salt: hydrochloride) [Example 1, 2-[3-(5-Fluoro-1H-indol-3-ylmethyl)-azetidin-1-ylmethyl]-8-methyl-2,3-dihydro-[1,4]dioxino[2,3-f]quinoline], the melting point was 125 °C (dec.).

`Cc1ccc2c3c(ccc2n1)OC[C@H](CN1CCC(Cn2ccc4ccc(F)cc42)CC1)O3` (as salt: fumarate) [Example 6] showed a melting point of 140 to 142 °C.

As to `Cc1ccc2c3c(ccc2n1)OCC(CN1CCCC(Cc2c[nH]c4ccc(F)cc24)C1)O3` (stereo not shown) (as salt: hydrochloride) [Example 2, 2-[3-(5-Fluoro-1H-indol-3-ylmethyl)-piperidin-1-ylmethyl]-8-methyl-2,3-dihydro-[1,4]dioxino[2,3-f]quinoline], the melting point was 68 °C (dec.).

Turning to `Cc1ccc2c3c(ccc2n1)OC[C@H](CN1CCC(Cn2ccc4ccc(F)cc42)CC1)O3` [Example 6], the Ki at serotonin transporter amounted to 1.01 nM; at human 5-HT1A receptors it was 9.55 nM. Also, in data set [1], the IC50 is 242 nM. In data set [1] (setting [2]), the Emax is 85.5%.

For the molecule `Cc1ccc2c3c(ccc2n1)OC[C@H](CN1CCC(Cn2ccc4ccc(C#N)cc42)CC1)O3` (as salt: fumarate) [Example 8], the melting point is 178 to 180 °C.

For `Cc1ccc2c3c(ccc2n1)OCC(CN1CC(CCn2ccc4ccc(F)cc42)C1)O3` (stereo not shown) [Example 10, 2-{3-[2-(6-Fluoro-indol-1-yl)-ethyl]-azetidin-1-ylmethyl}-8-methyl-2,3-dihydro-[1,4]dioxino[2,3-f]quinoline], the Ki was determined as 4.26 nM at serotonin transporter and 1.9 nM at human 5-HT1A receptors. In data set [1], the IC50 turned out to be 343 nM. Further, the Emax in data set [1] (setting [2]) worked out at 80%.

`CCc1ccc2c3c(ccc2n1)OC[C@H](CN1CCC(Cn2ccc4ccc(F)cc42)CC1)O3` (as salt: hydrochloride) [Example 7]: the melting point is above 250 °C.

For `Cc1ccc2c3c(ccc2n1)OCC(CN1CC(CCn2ccc4ccc(F)cc42)C1)O3` (stereo not shown) (as salt: hydrochloride) [Example 10, 2-{3-[2-(6-Fluoro-indol-1-yl)-ethyl]-azetidin-1-ylmethyl}-8-methyl-2,3-dihydro-[1,4]dioxino[2,3-f]quinoline], the melting point was 115 °C (dec.).

For the molecule `Cc1ccc2c3c(ccc2n1)OC[C@H](CN1CCC(Cn2ccc4ccc(C#N)cc42)CC1)O3` [Example 8], the values for the inhibition constant (Ki) on serotonin transporter and on human 5-HT1A receptors were 0.6 nM and 6.56 nM, respectively. The IC50 in data set [1] was 243 nM. The Emax in data set [1] (setting [2]) amounted to 100%.

With `Cc1ccc2c3c(ccc2n1)OC[C@H](CN1CC(Cc2cn(C)c4ccc(F)cc24)C1)O3` [Example 5], the values for the Ki at serotonin transporter and on human 5-HT1A receptors were 0.72 nM and 16.7 nM, respectively. Further, in data set [1], the IC50 was found to be 34.5 nM. Also, the Emax in data set [1] (setting [2]) came to 96.3%.

On to `CCc1ccc2c3c(ccc2n1)OC[C@H](CN1CCC(Cn2ccc4ccc(F)cc42)CC1)O3` [Example 7], for which the inhibition constant (Ki) came to 1.61 nM on serotonin transporter and 15.2 nM at human 5-HT1A receptors. In addition, in data set [1], the IC50 was 208 nM. The Emax in data set [1] (setting [2]) was 81.5%.

For `Cc1ccc2c3c(ccc2n1)OCC(CN1CC(Cc2c[nH]c4ccccc24)C1)O3` (stereo not shown) [Example 4, 2-[3-(1H-Indol-3-ylmethyl)-azetidin-1-ylmethyl]-8-methyl-2,3-dihydro-[1,4]dioxino[2,3-f]quinoline], the inhibition constant (Ki) on serotonin transporter came out at 0.56 nM. For the same molecule, the Ki on human 5-HT1A receptors came out at 9.2 nM. In data set [1], the 50% inhibitory concentration (IC50) stood at 37.2 nM and the Emax turned out to be 76.4%.

Take `Cc1ccc2c3c(ccc2n1)OCC(CN1CCCC(Cc2c[nH]c4ccc(F)cc24)C1)O3` (stereo not shown) [Example 2, 2-[3-(5-Fluoro-1H-indol-3-ylmethyl)-piperidin-1-ylmethyl]-8-methyl-2,3-dihydro-[1,4]dioxino[2,3-f]quinoline]: the Ki turned out to be 15.3 nM at serotonin transporter and 3.3 nM on human 5-HT1A receptors. In addition, the IC50 in data set [1] came to 552 nM. Further, the Emax in data set [1] (setting [2]) was found to be 100%.

`Cc1ccc2c3c(ccc2n1)OC[C@H](CN1CC(Cc2cn(C)c4ccc(F)cc24)C1)O3` (as salt: oxalate) [Example 5]: the melting point was in the range of 193 to 195 °C.

With `Cc1ccc2c3c(ccc2n1)OCC(CN1CCCC(Cc2c[nH]c4cc(F)ccc24)C1)O3` (stereo not shown) [Example 3, 2-[3-(6-Fluoro-1H-indol-3-ylmethyl)-piperidin-1-ylmethyl]-8-methyl-2,3-dihydro-[1,4]dioxino[2,3-f]quinoline], the inhibitory constant (Ki) at serotonin transporter came out at 15.1 nM; at human 5-HT1A receptors it was 3.4 nM. For the same molecule, the IC50 in data set [1] came out at 666 nM. In addition, the Emax in data set [1] (setting [2]) amounted to 100%.

Regarding `Cc1ccc2c3c(ccc2n1)OCC(CN1CC(Cn2ccc4ccc(F)cc42)C1)O3` (stereo not shown) [Example 9, 2-[3-(6-Fluoro-indol-1-ylmethyl)-azetidin-1-ylmethyl]-8-methyl-2,3-dihydro-[1,4]dioxino[2,3-f]quinoline], the Ki on serotonin transporter was 0.11 nM; on human 5-HT1A receptors it was 55 nM.

As a reminder, the melting point is the temperature of the solid-liquid transition. The term Ki denotes the dissociation constant of the complex between target and ligand, obtained from inhibition or displacement. Usually IC50 stands for the concentration needed to halve the response being measured.
